Biological target: T1, Recombinant human KIF18A (1-467 His-tagged) protein (Homo sapiens, UniProt Q8NI77)
T1 construct: Recombinant human KIF18A (1-467 His-tagged) protein; His; made in house
Assay: KIF18A Enzyme Assay: microtubule-stimulated ATPase activity (ADP-Glo)
Type: biochemical
Details: 30 nM KIF18A, 75 μM ATP
Outline: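 Recombinant human KIF18A (1-467, His-tagged), baculovirus-expressed, assayed for microtubule-stimulated ATPase activity; ADP formed detected by ADP-Glo luminescence. Compounds tested as 22-point 2-fold serial dilutions in DMSO. IC50 from four-parameter logistic fit.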

T1 sequence (Q8NI77 1-467): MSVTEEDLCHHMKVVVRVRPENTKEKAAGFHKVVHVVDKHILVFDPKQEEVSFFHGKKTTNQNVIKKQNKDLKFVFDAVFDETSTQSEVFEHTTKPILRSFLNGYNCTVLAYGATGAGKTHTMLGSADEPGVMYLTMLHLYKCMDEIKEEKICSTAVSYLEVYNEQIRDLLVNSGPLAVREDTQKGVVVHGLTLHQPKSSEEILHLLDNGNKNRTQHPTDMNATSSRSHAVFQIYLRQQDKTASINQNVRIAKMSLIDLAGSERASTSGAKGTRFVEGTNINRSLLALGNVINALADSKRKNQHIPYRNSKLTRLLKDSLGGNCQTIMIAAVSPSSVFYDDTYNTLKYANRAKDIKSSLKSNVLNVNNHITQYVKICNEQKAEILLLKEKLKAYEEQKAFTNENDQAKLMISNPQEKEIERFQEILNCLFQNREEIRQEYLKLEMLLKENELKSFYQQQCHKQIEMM
T1 sequence (P02550 whole entry partner): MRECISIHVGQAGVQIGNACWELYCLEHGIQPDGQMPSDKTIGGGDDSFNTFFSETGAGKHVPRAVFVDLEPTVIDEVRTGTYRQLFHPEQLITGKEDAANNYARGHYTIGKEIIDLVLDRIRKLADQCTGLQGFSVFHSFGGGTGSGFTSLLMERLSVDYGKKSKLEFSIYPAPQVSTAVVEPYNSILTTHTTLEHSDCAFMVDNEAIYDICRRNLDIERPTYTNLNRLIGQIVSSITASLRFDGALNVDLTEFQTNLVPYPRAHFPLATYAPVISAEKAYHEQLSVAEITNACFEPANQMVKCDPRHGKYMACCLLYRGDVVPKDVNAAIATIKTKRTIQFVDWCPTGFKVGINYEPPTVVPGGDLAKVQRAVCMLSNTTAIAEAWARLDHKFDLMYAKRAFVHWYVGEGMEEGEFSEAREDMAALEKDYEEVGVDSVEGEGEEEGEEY
T1 sequence (P02554 whole entry partner): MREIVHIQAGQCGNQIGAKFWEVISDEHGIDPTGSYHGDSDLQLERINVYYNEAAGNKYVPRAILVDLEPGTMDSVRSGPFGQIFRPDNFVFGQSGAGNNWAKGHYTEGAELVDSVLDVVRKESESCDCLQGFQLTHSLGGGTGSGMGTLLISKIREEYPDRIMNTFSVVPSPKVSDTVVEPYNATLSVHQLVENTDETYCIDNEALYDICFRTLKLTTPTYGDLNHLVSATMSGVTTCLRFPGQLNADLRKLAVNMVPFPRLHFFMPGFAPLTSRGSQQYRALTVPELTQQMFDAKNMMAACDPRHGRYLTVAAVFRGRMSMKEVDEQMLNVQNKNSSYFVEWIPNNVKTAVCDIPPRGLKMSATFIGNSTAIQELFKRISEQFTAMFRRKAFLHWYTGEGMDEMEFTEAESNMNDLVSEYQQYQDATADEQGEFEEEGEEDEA

IC50	Compound
261 nM	COc1ccc(C(=O)Nc2cccc(S(=O)(=O)C3CCCC3)c2)c(N2CCC3(CC2)CC3)n1 [Example 104-1, N-(3-(cyclopentylsulfonyl)phenyl)-6-methoxy-2-(6-azaspiro[2.5]octan-6-yl)nicotinamide]
77 nM	CC(C)(CO)Nc1ccc(C(=O)Nc2cccc(S(=O)(=O)C3(C)CCC3)c2)c(N2CCC3(CC2)CC3)n1 [Example 105-1, 6-((1-hydroxy-2-methylpropan-2-yl)amino)-N-(3-((1-methylcyclobutyl)sulfonyl)phenyl)-2-(6-azaspiro[2.5]octan-6-yl)nicotinamide]
80 nM	CC(C)(CO)Nc1ccc(C(=O)Nc2cccc(S(=O)(=O)C(C)(C)C)c2)c(N2CCC3(CC2)CC3)n1 [Example 105-2, N-(3-(tert-butylsulfonyl)phenyl)-6-((1-hydroxy-2-methylpropan-2-yl)amino)-2-(6-azaspiro[2.5]octan-6-yl)nicotinamide]
208 nM	CC(C)(CO)Nc1ccc(C(=O)Nc2cccc(S(=O)(=O)C(C)(C)C(F)(F)F)c2)c(N2CCC3(CC2)CC3)n1 [Example 105-3, 6-((1-hydroxy-2-methylpropan-2-yl)amino)-2-(6-azaspiro[2.5]octan-6-yl)-N-(3-((1,1,1-trifluoro-2-methylpropan-2-yl)sulfonyl)phenyl)nicotinamide]
42 nM	CC(C)CS(=O)(=O)c1cccc(NC(=O)c2ccc(NC(C)(C)CO)nc2N2CCC3(CC2)CC3)c1 [Example 105-4, 6-((1-hydroxy-2-methylpropan-2-yl)amino)-N-(3-(isobutylsulfonyl)phenyl)-2-(6-azaspiro[2.5]octan-6-yl)nicotinamide]
186 nM	CC(C)(CO)Nc1ccc(C(=O)Nc2cccc(S(=O)(=O)C(F)(F)F)c2)c(N2CCC3(CC2)CC3)n1 [Example 105-5, 6-((1-hydroxy-2-methylpropan-2-yl)amino)-2-(6-azaspiro[2.5]octan-6-yl)-N-(3-((trifluoromethyl)sulfonyl)phenyl)nicotinamide]
28 nM	CC(C)(CO)Nc1ccc(C(=O)Nc2cccc(S(=O)(=O)C3CCC3)c2)c(N2CCC3(CC2)CC3)n1 [Example 105-6, N-(3-(cyclobutylsulfonyl)phenyl)-6-((1-hydroxy-2-methylpropan-2-yl)amino)-2-(6-azaspiro[2.5]octan-6-yl)nicotinamide]
55 nM	Cc1ccc(NC(=O)c2ccc(NC(C)(C)CO)nc2N2CCC3(CC2)CC3)cc1S(=O)(=O)C1CCCC1 [Example 105-8, N-(3-(cyclopentylsulfonyl)-4-methylphenyl)-6-((1-hydroxy-2-methylpropan-2-yl)amino)-2-(6-azaspiro[2.5]octan-6-yl)nicotinamide]
68 nM	Cc1ccc(NC(=O)c2ccc(NC(C)(C)CO)nc2N2CCC3(CCC3)CC2)cc1S(=O)(=O)C1CCCC1 [Example 105-9, N-(3-(cyclopentylsulfonyl)-4-methylphenyl)-6-((1-hydroxy-2-methylpropan-2-yl)amino)-2-(7-azaspiro[3.5]nonan-7-yl)nicotinamide]
58 nM	Cc1ccc(NC(=O)c2ccc(NC3(CO)CC3)nc2N2CCC3(CC2)CC3)cc1S(=O)(=O)C1CCCC1 [Example 105-10, N-(3-(cyclopentylsulfonyl)-4-methylphenyl)-6-((1-(hydroxymethyl)cyclopropyl)amino)-2-(6-azaspiro[2.5]octan-6-yl)nicotinamide]
94 nM	CC(C)(C)NS(=O)(=O)c1cccc(NC(=O)c2ccc(NC3(CO)CC3)nc2N2CCC3(CC2)CC3)c1 [Example 105-11, N-(3-(N-(tert-butyl)sulfamoyl)phenyl)-6-((1-(hydroxymethyl)cyclopropyl)amino)-2-(6-azaspiro[2.5]octan-6-yl)nicotinamide]
105 nM	CC1(NS(=O)(=O)c2cccc(NC(=O)c3ccc(NC4(CO)CC4)nc3N3CCC4(CC3)CC4)c2)CCC1 [Example 105-12, 6-((1-(hydroxymethyl)cyclopropyl)amino)-N-(3-(N-(1-methylcyclobutyl)sulfamoyl)phenyl)-2-(6-azaspiro[2.5]octan-6-yl)nicotinamide]

The next lines start with the molecule.

Compound	IC50
C[C@@H](O)CNc1ccc(C(=O)Nc2cccc(S(=O)(=O)C3CCCC3)c2)c(N2CCC3(CC2)CC3)n1 [Example 103-11, (R)-N-(3-(cyclopentylsulfonyl)phenyl)-6-((2-hydroxypropyl)amino)-2-(6-azaspiro[2.5]octan-6-yl)nicotinamide]	76 nM
C[C@H](O)CNc1ccc(C(=O)Nc2cccc(S(=O)(=O)C3CCCC3)c2)c(N2CCC3(CC2)CC3)n1 [Example 103-12, (S)-N-(3-(cyclopentylsulfonyl)phenyl)-6-((2-hydroxypropyl)amino)-2-(6-azaspiro[2.5]octan-6-yl)nicotinamide]	65 nM
O=C(Nc1cccc(S(=O)(=O)C2CCCC2)c1)c1ccc(NC2COC2)nc1N1CCC2(CC1)CC2 [Example 103-13, N-(3-(cyclopentylsulfonyl)phenyl)-6-(oxctan-3-ylamino)-2-(6-azaspiro[2.5]octan-6-yl)nicotinamide]	43 nM
O=C(Nc1cccc(S(=O)(=O)C2CCCC2)c1)c1ccc(N[C@@H]2CC[C@H]2O)nc1N1CCC2(CC1)CC2 [Example 103-14, N-(3-(cyclopentylsulfonyl)phenyl)-6-(((1R,2R)-2-hydroxycyclobutyl)amino)-2-(6-azaspiro[2.5]octan-6-yl)nicotinamide]	161 nM
O=C(Nc1cccc(S(=O)(=O)C2CCCC2)c1)c1ccc(N[C@@H]2CCOC2)nc1N1CCC2(CC1)CC2 [Example 103-15, (R)-N-(3-(cyclopentylsulfonyl)phenyl)-2-(6-azaspiro[2.5]octan-6-yl)-6-((tetrahydrofuran-3-yl)amino)nicotinamide]	51 nM
O=C(Nc1cccc(S(=O)(=O)C2CCCC2)c1)c1ccc(N[C@H]2CCOC2)nc1N1CCC2(CC1)CC2 [Example 103-16, (S)-N-(3-(cyclopentylsulfonyl)phenyl)-2-(6-azaspiro[2.5]octan-6-yl)-6-((tetrahydrofuran-3-yl)amino)nicotinamide]	115 nM
O=C(Nc1cccc(S(=O)(=O)C2CCCC2)c1)c1ccc(NCC2(O)CCC2)nc1N1CCC2(CC1)CC2 [Example 103-17, N-(3-(cyclopentylsulfonyl)phenyl)-6-(((1-hydroxycyclobutyl)methyl)amino)-2-(6-azaspiro[2.5]octan-6-yl)nicotinamide]	168 nM
CC(C)(O)C(C)(C)Nc1ccc(C(=O)Nc2cccc(S(=O)(=O)C3CCCC3)c2)c(N2CCC3(CC2)CC3)n1 [Example 103-18, N-(3-(cyclopentylsulfonyl)phenyl)-6-((3-hydroxy-2,3-dimethylbutan-2-yl)amino)-2-(6-azaspiro[2.5]octan-6-yl)nicotinamide]	109 nM
O=C(Nc1cccc(S(=O)(=O)C2CCCC2)c1)c1ccc(NC2(CCO)CC2)nc1N1CCC2(CC1)CC2 [Example 103-19, N-(3-(cyclopentylsulfonyl)phenyl)-6-((1-(2-hydroxyethyl)cyclopropyl)amino)-2-(6-azaspiro[2.5]octan-6-yl)nicotinamide]	55 nM
O=C(Nc1cccc(S(=O)(=O)C2CCCC2)c1)c1ccc(N2CC(CO)C2)nc1N1CCC2(CC1)CC2 [Example 103-20, N-(3-(cyclopentylsulfonyl)phenyl)-6-(3-(hydroxymethyl)azetidin-1-yl)-2-(6-azaspiro[2.5]octan-6-yl)nicotinamide]	141 nM
O=C(Nc1cccc(S(=O)(=O)C2CCCC2)c1)c1ccc(N2CC(O)C2)nc1N1CCC2(CC1)CC2 [Example 103-21, N-(3-(cyclopentylsulfonyl)phenyl)-6-(3-hydroxyazetidin-1-yl)-2-(6-azaspiro[2.5]octan-6-yl)nicotinamide]	118 nM
CN(C)CCNc1ccc(C(=O)Nc2cccc(S(=O)(=O)C3CCCC3)c2)c(N2CCC3(CC2)CC3)n1 [Example 103-22, N-(3-(cyclopentylsulfonyl)phenyl)-6-((2-(dimethylamino)ethyl)amino)-2-(6-azaspiro[2.5]octan-6-yl)nicotinamide]	678 nM
CCNc1ccc(C(=O)Nc2cccc(S(=O)(=O)C3CCCC3)c2)c(N2CCC3(CCC3)CC2)n1 [Example 103-23, N-(3-(cyclopentylsulfonyl)phenyl)-6-(ethylamino)-2-(7-azaspiro[3.5]nonan-7-yl)nicotinamide]	97 nM
O=C(Nc1cccc(S(=O)(=O)C2CCCC2)c1)c1ccc(NCCO)nc1N1CCC2(CCC2)CC1 [Example 103-24, N-(3-(cyclopentylsulfonyl)phenyl)-6-((2-hydroxyethyl)amino)-2-(7-azaspiro[3.5]nonan-7-yl)nicotinamide]	36 nM
O=C(Nc1cccc(S(=O)(=O)C2CCCC2)c1)c1ccc(NC2(CO)CC2)nc1N1CCC2(CCC2)CC1 [Example 103-25, N-(3-(cyclopentylsulfonyl)phenyl)-6-((1-(hydroxymethyl)cyclopropyl)amino)-2-(7-azaspiro[3.5]nonan-7-yl)nicotinamide]	38 nM
O=C(Nc1cccc(S(=O)(=O)C2CCCC2)c1)c1ccc(N2CCC2)nc1N1CCC2(CCC2)CC1 [Example 103-26, 6-(azctidin-1-yl)-N-(3-(cyclopentylsulfonyl)phenyl)-2-(7-azaspiro[3.5]nonan-7-yl)nicotinamide]	141 nM
O=C(Nc1cccc(S(=O)(=O)C2CCCC2)c1)c1ccc(N2CCOCC2)nc1N1CCC2(CCC2)CC1 [Example 103-27, N-(3-(cyclopentylsulfonyl)phenyl)-6-morpholino-2-(7-azaspiro[3.5]nonan-7-yl)nicotinamide]	688 nM
CC(C)(C)NS(=O)(=O)c1cccc(NC(=O)c2ccc(NC(C)(C)CCO)nc2N2CCC3(CC2)CC3)c1 [Example 103-28, N-(3-(N-(tert-butyl)sulfamoyl)phenyl)-6-((4-hydroxy-2-methylbutan-2-yl)amino)-2-(6-azaspiro[2.5]octan-6-yl)nicotinamide]	80 nM
O=C(Nc1cccc(S(=O)(=O)C2CCCC2)c1)c1ccc(OC2COC2)nc1N1CCC2(CC1)CC2 [Example 104, N-(3-(cyclopentylsulfonyl)phenyl)-6-(oxctan-3-yloxy)-2-(6-azaspiro[2.5]octan-6-yl)nicotinamide]	296 nM
